According to paper PMC7140498, “Predicting liver cytosol stability of small molecules” (Journal of Cheminformatics, 2020):
Where two headings read alike, the source gives them in different places.

Tests used:
[1] = Metabolic stability assay (substrate depletion) in mouse liver cytosol fractions; settings: for half-life at 1 μM: male, CD-1, mouse; for t1/2 [min] (Left): left compound
Procedure: (§1) Our assay (384-well format) consisted of two parts; a robotic system for incubation and sample clean up and an integrated LC/MS method to calculate the percent remaining of parent compound. Briefly, each reaction mixture (110 μL) consisted of a test compound (1 μM) and either human or mouse cytosol fractions (2 mg/mL) in phosphate buffer (100 mM) at pH 7.4. Samples were incubated in 384-well plates at 37 °C for 0, 5, 10, 15, 30 and 60 min. Sample analysis and t1/2 calculations were performed using a previously described method [15]. […] A set of control compounds for low and high cytosolic stability were routinely run in each plate.

[2] = human, cytosol
Procedure: as §1

[3] = Metabolic stability assay (substrate depletion) in human liver cytosol fractions; settings: both, human, cytosol, control compounds, 17 plates
Procedure: as §1

[4] = design: method as in PMID 21385103; settings: clinical trials terminated; cited from earlier work
[5] = design: method as in PMID 20421447; settings: development discontinued in 2008; cited from earlier work
[6] = liver cytosol fractions, pH 7.4, t1/2 [min] (Right), external validation, sheet Mouse, right compound
[7] = external validation, sheet Mouse

half-life at 1 μM [1, 6] [h]	Compound	also measured
0.412	CCN1c2cc(C(=O)Nc3ccc(Cl)c(F)c3)ccc2C(=O)N2CCCCC21 (stereo not shown)	–
0.904	CCN1c2cc(C(=O)Nc3ccc(Cl)c(F)c3)ccc2C(=O)N2CCCCCC21 (stereo not shown)	–
1.36	COCC1CN(C(C)=O)CC12CCN(Cc1ccc(Cl)c(F)c1)CC2 (stereo not shown)	–
1.47	COc1cc(=O)n2c(c1C(=O)Nc1ccc(Cl)c(F)c1)CCCC2	–
1.43	O=C1NC2(CCN(C(=O)c3ccc(Cl)c(F)c3)CC2)CC1c1ccccc1 (stereo not shown)	–
0.621	O=C1[C@H]2CN(Cc3ccc(Cl)c(F)c3)C[C@H]2C(=O)N1CCc1ccccc1	–
–	O=C(c1ccc(-c2ncc3cnc(-c4cccc(F)c4)cn23)cc1)N1CCc2cccnc21	t1/2 [min] (Left) [2]: 17.3 min
–	Cc1cc(=O)n(-c2ccccc2)n1C [Antipyrine, reference compound]	half-life at 1 μM ([3]; pH 7.4, t1/2 (mean ± SD) (Human cytosol), 1 μM, 2 mg/mL cytosol, pH 7.4, 37 °C): > 2 h; half-life at 1 μM ([3]; pH 7.4, t1/2 category (Human cytosol)): > 0.5 h; half-life at 1 μM ([1]; cytosol, pH 7.4, t1/2 (mean ± SD) (Mouse cytosol), control compounds, 17 plates, 1 μM, 2 mg/mL cytosol, pH 7.4, 37 °C): > 2 h; half-life at 1 μM ([1]; cytosol, pH 7.4, t1/2 category (Mouse cytosol), control compounds, 17 plates): > 0.5 h
> 2	COCC1CN(Cc2ccc(Cl)c(F)c2)CC12CCNCC2 (stereo not shown) [COCC1CN(Cc2ccc(Cl)c(F)c2)CC12CCNCC2]	–
–	Cc1noc(-c2nc(-c3ccc(Cl)cc3)no2)n1 [Cc1noc(-c2nc(-c3ccc(Cl)cc3)no2)n1]	t1/2 [min] (Left) [1, 7]: 15.6 min
–	CC(C)n1nc(-c2cnc(N)nc2-c2ccccc2)ccc1=O [FK3453]	levels of parent compound in human plasma [4]: abnormally low levels
> 2	O=C1OCC2(CCN(Cc3cc[nH]n3)C2)N1CCN1CCOCC1 (stereo not shown) [O=C1OCC2(CCN(Cc3cc[nH]n3)C2)N1CCN1CCOCC1]	–
> 2	O=C(Nc1cccc(-c2nnc3n2CCCC3)c1)c1cc[nH]n1 [O=C(Nc1cccc(-c2nnc3n2CCCC3)c1)c1cc[nH]n1]	–
–	O=c1cc(N2CCOCC2)oc2c(-c3cccc(F)c3)nccc12 [O=c1cc(N2CCOCC2)oc2c(-c3cccc(F)c3)nccc12]	t1/2 [min] (Left) [2]: > 120 min
–	OCC1(CN2CCCC2)CCN(Cc2ccc(Cl)cc2)CC1 [OCC1(CN2CCCC2)CCN(Cc2ccc(Cl)cc2)CC1]	t1/2 [min] (Left) [1, 7]: 54.48 min
–	Cn1cc(-c2ccc3nnc(Sc4ccc5ncccc5c4)n3n2)cn1 [SGX523]	toxicity reported in development [5]: dose-limiting renal toxicity

Compound	half-life at 1 μM [1, 6] [h]	also measured
CN(C1CCOCC1)C1CCN(C(=O)c2cc[nH]n2)CC1 [CN(C1CCOCC1)C1CCN(C(=O)c2cc[nH]n2)CC1]	> 2	–
O=C(Nc1ccc(-c2nnc3n2CCCC3)cc1)c1cc[nH]n1 [O=C(Nc1ccc(-c2nnc3n2CCCC3)cc1)c1cc[nH]n1]	> 2	–
OCC1(CN2CCCC2)CCN(Cc2ccc(Cl)c(F)c2)CC1 [OCC1(CN2CCCC2)CCN(Cc2ccc(Cl)c(F)c2)CC1]	1.21	–
